In brackets after ≈: the same amount, converted by molar mass.
How the values were obtained:
[1] = target: T1, hsMTHFD2 (Homo sapiens, UniProt P13995); test: Surface plasmon resonance assay; format: binding; conditions: read-out: KD (SPR)
T1 construct: His-tag (vector pHis-TEV); made in house; host or cells: E. coli BL21 (DE3)
T1 sequence (P13995 36-350): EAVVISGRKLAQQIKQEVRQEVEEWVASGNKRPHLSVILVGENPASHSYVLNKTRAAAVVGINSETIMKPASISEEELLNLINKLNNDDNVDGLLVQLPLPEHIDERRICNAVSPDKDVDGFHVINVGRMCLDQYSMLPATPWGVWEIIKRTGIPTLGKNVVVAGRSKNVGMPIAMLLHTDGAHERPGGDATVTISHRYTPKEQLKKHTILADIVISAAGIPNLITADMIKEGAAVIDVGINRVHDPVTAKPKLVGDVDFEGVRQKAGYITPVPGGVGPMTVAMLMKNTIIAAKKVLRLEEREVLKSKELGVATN
Procedure: All surface plasmon resonance (SPR) experiments described in this study were performed on a Biacore X100 system. Different FoIDs with or without His-tag were coupled on CM5 sensor chips (GE Healthcare) by the amine coupling method using a kit from GE Healthcare Life Sciences (Freiburg, Germany). A pH scouting process was performed before protein immobilization to test the most appropriate buffer and the protein concentration for protein coupling. Finally, 20 μg/mL of ecFoID in 10 mM maleate buffer (pH 6.8), 30 μg/mL of ecFoID Q98H in 10 mM maleate buffer (pH 6.3), 40 μg/mL of ecFoID K54N in 10 mM maleate buffer (pH 5.8), 20 μg/mL of spFoID in 10 mM maleate buffer (pH 6.0) and 15 μg/mL of MTHFD2 (His-tag cleaved) in 10 mM maleate buffer (pH 6.8) were used for coupling. In the protein immobilization procedure, the contact time was calculated based on the pH scouting results to achieve -3000-5000 relative resonance units (RU). The buffer used in the SPR assays was 1×HBS-P buffer (10 mM HEPES pH 7.4, 150 mM NaCl, 0.05% Tween 20). The 1 mM stock solution of carolacton was prepared in 1×HBS-P buffer and diluted to different concentration ranges by two-fold serial dilution. In the SPR assay, the association time was 180 s and the dissociation time was 600 s. Data analysis was performed using the Biacore evaluation software. […]

[2] = system: S. pneumoniae TIGR4ΔfoID; test: Planktonic growth of S. pneumoniae foID deletion mutant; format: cell-based, Streptococcus pneumoniae; conditions: 0.25 μg/ml carolacton
Procedure: FIG. 4. Carolacton effects on S. pneumoniae TIGR4 and foID deletion, complementation and fhs deletion mutants. (A) Growth inhibition of planktonic cultures of S. pneumoniae TIGR4 wild type, ΔfoID deletion mutant and controls in THBY. Carolacton (caro) (0.25 μg/ml) was added at an optical density of 600 nm (OD600) of 0.15. (B) Planktonic growth of the S. pneumoniae TIGR4 wild type and the TIGR4Δfhs mutant in THBY. Cultures were treated with 0.25 μg/ml carolacton (OD600 0.15).
The Streptococcus mutans and Streptococcus pneumoniae strains used herein are UA159 and TIGR4, respectively. S. pneumoniae TIGR4 was routinely grown on Columbia blood agar plates (BD Biosciences) as described previously (Donner et. al, 2016). Streptococci were grown in Todd-Hewitt-Broth +1% (w/v) yeast extract (THBY, BD Biosciences)) at 37° C. and 5% CO2. The E. coli ToIC strain used in carolacton-resistant mutant development is an antibiotic-sensitive E. coli strain without its outer membrane channel protein ToIC. E. coli DH1OB or DH5α strain was used for gene cloning and E. coli BL21 (DE3) was used for protein expression. The protein expression plasmid pHis-TEV (Liu et al., 2009) was used for cloning and expression of all different foID gene orthologues studied herein.

[3] = system: L-929 mouse fibroblasts; test: Cell proliferation assay with mouse fibroblasts (MTT); format: cell-based
Procedure: L-929 mouse fibroblasts from DSMZ cultivated at 37° C. and 10% CO2 in DME medium (high glucose) supplemented with 10% fetal calf serum. Cell culture reagents came from Life Technologies Inc. (GIBCO BRL). […] of serial dilutions of the test compound were given to […] of suspended cells (50,000/mL) in wells of 96-well plates. After 5 days of incubation growth inhibition (IC50) was determined using an MTT assay (Mosman et al., 1983).

[4] = system: S. mutans ΔfoID biofilms; test: S. mutans biofilm viability assay, foID deletion mutant; format: cell-based, Streptococcus mutans; conditions: 2.5 μg/ml carolacton
Procedure: According to Reck et al., 2011, S. mutans biofilms were grown in THBY+0.5% (w/v) sucrose in the presence of 2.5 μg/ml carolacton (cf. SI Methods). Cell viability was determined by staining of 20 h-old S. mutans biofilms with the LIVE/DEAD Viability Kit (Invitrogen) and by measuring fluorescence with a Victor^3 multilabel counter (Perkin-Elmer). Subsequently, the green/red fluorescence ratio was calculated and the relative inhibition of the treated biofilms determined in comparison to the untreated control.
For determination of Carolacton-induced cell death of S. mutans biofilms, o/n cultures of S. mutans were diluted to an OD600 of 0.01 in THBY+0.5% (w/v) sucrose. 10 μl of a Carolacton solution (2.5 μg/ml and 0.25 μg/ml in methanol) was pipetted into the wells of black a 96-well polystyrene Nunc MicroWell plates with transparent bottoms (ThermoFisher); control wells contained 10 μl of methanol. […]
The viability of S. mutans biofilm cells was assayed by staining with the commercially available Live/Dead staining kit (Invitrogen). […] Green and red fluorescence values of stained cells were measured using a Victor^3 fluorescence plate reader (Perkin-Elmer). The green/red ratio of treated and untreated cells was calculated and the relative cell death within Carolacton-treated biofilms determined relative to the untreated controls (Reck et al., 2011).

Structure (SMILES): CO[C@H](CC(=O)O)[C@@H](C)C(=O)[C@H](C)/C=C(\C)[C@H]1OC(=O)[C@H](O)[C@H](O)/C=C/[C@H](C)CCC[C@@H]1C [Carolacton, carolacton]
- Kd [1]: 19 nM
- sensitivity of planktonic growth to carolacton [2]: carolacton resistant
- inhibition of growth of L929 cells reached ([3]; L929 cells cultivated for 5 days): ≤ 50%
- IC50 ([3]; Mus musculus, L929, 120 h, read-out: adapted IC50, inhibition of mouse fibroblast proliferation): 3.5 µg/mL (≈ 7.47 µM)
- sensitivity of biofilms to carolacton treatment [4]: fully insensitive
